Where two headings read alike, the source gives them in different places. Marks after values point to notes of the source that are not given here.
Experiments:
[1] = test system: lactobacilli; test: Faecal lactobacilli counts and L:C ratio in weaner pigs (Example 7); assay type: in vivo; conditions: 0.2 g/L in drinking water; one male pig per pen
Source text: (§1) Faeces, cleanliness and health scores was taken daily (Appendix). Faecal scores especially are indicative of diarrhea incidence, and are used in the industry as a general easy to observe gut health indicator. […] Faecal samples were stored under conditions allowing submission to SAC Veterinary Services for quantification of lactobacilli and coliforms, and their ratio (L:C ratio). These are used as key indicators for gut health, with a greater L:C ratio being indicative to better gut health.

[2] = test system: E. coli; test: Faecal E. coli counts in weaner pigs (Example 7); assay type: in vivo; conditions: 0.2 g/L in drinking water; one male pig per pen
Source text: as §1

[3] = test system: Pseudomonas aeruginosa PAO-1 strain
Procedure: Pseudomonas aeruginosa PAO-1 strain was routinely grown on either LB (Luria-Bertani, Oxoid, UK) agar plates at 37° C. or in broth at 37° C. with 200 rpm shaking. UV-sterilized glass slides were incubated in either 15 mL RPMI-1640 defined medium (Sigma, UK) or 15 mL RPMI-1640 with Fe-Lac inoculated with diluted (OD600=0.01) bacteria from overnight cultures at 37° C. with 60 rpm shaking for 72 hours. The slides were removed from bacterial culture and washed with 15 mL phosphate buffered saline at room temperature for 5 minutes three times and then rinsed with distilled H2O. After washing, the slides were stained with 20 μM SYTO17 dye (Invitrogen, UK) at room temperature for 30 minutes. After removing excess staining dye and air-drying, the samples were examined using a Carl Zeiss LSM 700 Laser Scanning Microscope with ZEN 2009 imaging software (Carl Zeiss, Germany). The coverage rate of bacteria on the surface was analysed using open source Image J 1.44 software (National Institute of Health, US).
Pseudomonas aeruginosa PAO-1 strain was routinely grown on either LB (Luria-Bertani, Oxoid, UK) agar plates at 37° C. or in broth at 37° C. with 200 rpm shaking. UV-sterilized glass slides were incubated in either 15 mL RPMI-1640 defined medium (Sigma, UK) or 15 mL RPMI-1640 with Fe-Cit inoculated with diluted (OD600=0.01) bacteria from overnight cultures at 37° C. with 60 rpm shaking for 72 hours. The slides were removed from bacterial culture and washed with 15 mL phosphate buffered saline at room temperature for 5 minutes three times and then rinsed with distilled H2O. After washing, the slides were stained with 20 μM SYTO17 dye (Invitrogen, UK) at room temperature for 30 minutes. After removing excess staining dye and air-drying, the samples were examined using a Carl Zeiss LSM 700 Laser Scanning Microscope with ZEN 2009 imaging software (Carl Zeiss, Germany). The coverage rate of bacteria on the surface was analysed using open source Image J 1.44 software (National Institute of Health, US).
Pseudomonas aeruginosa PAO-1 strain was routinely grown on either LB (Luria-Bertani, Oxoid, UK) agar plates at 37° C. or in broth at 37° C. with 200 rpm shaking. […] The slides were removed from bacterial culture and washed with 15 mL phosphate buffered saline at room temperature for 5 minutes three times and then rinsed with distilled H2O. After washing, the slides were stained with 20 μM SYTO17 dye (Invitrogen, UK) at room temperature for 30 minutes. After removing excess staining dye and air-drying, the samples were examined using a Carl Zeiss LSM 700 Laser Scanning Microscope with ZEN 2009 imaging software (Carl Zeiss, Germany). The coverage rate of bacteria on the surface was analysed using open source Image J 1.44 software (National Institute of Health, US).
Pseudomonas aeruginosa PAO-1 strain was routinely grown on either LB (Luria-Bertani, Oxoid, UK) agar plates at 37° C. or in broth at 37° C. with 200 rpm shaking. UV-sterilized glass slides were incubated in either 15 mL RPMI-1640 defined medium (Sigma, UK) or 15 mL RPMI-1640 with Fe-Gly inoculated with diluted (OD600=0.01) bacteria from overnight cultures at 37° C. with 60 rpm shaking for 72 hours. The slides were removed from bacterial culture and washed with 15 mL phosphate buffered saline at room temperature for 5 minutes three times and then rinsed with distilled H2O. […] The coverage rate of bacteria on the surface was analysed using open source Image J 1.44 software (National Institute of Health, US).

[4] = test system: Campylobacter jejuni NCTC 11168; test: Biofilm formation on plastic coated UV beads (Example 6); conditions: Fe-Tart and Fe-Cit at 50, 100, and 300 μM; FeQ (QPLEX) at 300
[5] = test system: Campylobacter jejuni; test: Campylobacter carriage in chickens after oral challenge, caecal contents at day 35 (Example 9); assay type: in vivo; conditions: 340 μM in the drinking water
Procedure: A study was performed to evaluate reduction of Campylobacter carriage in chickens using ferric lactate in one treatment group, and FeQ (Q-PLEX) in a second treatment group. A third treatment group served as a positive control. The ferric lactate and FeQ were administered to the treatment groups at a concentration of 340 μM in the drinking water. Each treatment group comprised 12 birds per pen. All three treatment groups were orally challenged with 10^5 cfu of Campylobacter jejuni at day 14 of the trial. At day 35 all birds were euthanized, and quantitative bacteriology performed on caecal contents.

[6] = 0.2 g/L in drinking water; weaner pigs
Source text: Animal Details • Number of treatments: 4 treatments • Number of replicates: 4 pens • Number of animals per pen: 4 pigs (balanced for sex as much as possible) • Number of pens in study: 16 pens • Animal species and breed: newly weaned pigs (Large White×Landrace) • Total number of animals: 64
There were four (4) treatments, each having 4 replicate pens with 4 pigs per replicate pen, i.e. 16 pigs per treatment or 64 pigs in total.
The feeds used were standard commercial, non-medicated feeds, tailored for weaner pigs. The feeds were offered as a 3 mm pellet and ad libitum. Water will also be available ad libitum.
The Ethology 3 building of SRUC's Easter Howgate Pig Unit were used in this study. This house consists of 6 rooms, each with 4 pens, so holds up to 24 pens of 4 m^2 each; for this study, 4 rooms were used. The animal house, which is an environmentally controlled building, were sanitized prior to use and between rounds. Pigs were placed at weaning on a thick layer of fresh white wood shavings or straw in pens. Pens were balanced as much as possible for litter origin and sex (2 intact males and 2 females). Pens were bedded with additional sawdust or straw as required, and were equipped with a single feeder and nipple drinker. Foods were available ad libitum throughout. Water were supplied via measured bottles per pen, and also available. Environmental temperature were maintained at 26° C. for the first 4 days after weaning and then decreased by 2° C. for the remainder of the experiment. Lights were on from 08:00 am till 18:00 μm and night-lights maintained between 18:00 μm and 08:00 am.
Pigs were individually weighed at day 0, 6 and 13. Pigs removed or found dead weighed, and date noted.
The volume of feed offered per pen was recorded daily from day 0 until day 12, inclusive. Feed refusals were recorded daily from day 1 until day 13, inclusive.
Pig weights, feed offered and feed refusals were used to determine averaged daily weight gain, daily feed intake and feed conversion ratio, over day 0 to 6, 6 to 13, as well as 0 to 13.
From day 0 until day 13, the volume of water offered per pen was recorded daily and water levels were recorded from the water bottles prior to morning feeding before tupping up.
Data gathered were analyzed using analysis of variance (ANOVA), to test for the effect of Fe-complex provision per se and Fe-complex type. Treatments were allocated in blocks within Ethology 3, as each of the four proposed treatments were in each of the four rooms used. As such, rooms were used as block in the model. Effects were considered significant at P<0.05.

[7] = Calf health scoring: body temperature, faeces quality, coughing, nasal discharge, antibiotic treatments (Example 11)
Procedure: A study was performed to evaluate the potential of ferric citrate (CI-PLEX™ CHELATE) to improve calf health, welfare, and performance. A total of 80 rearing calves (German Holstein) were used from d 12 to d 68 of age. 40 calves were fed a basal milk replacer (T1 Control). For comparison, 40 calves were fed the basal milk replacer with addition of ferric (III) citrate (T2 CI-PLEX™ CHELATE, 500 g/tonne feed) with a microtracer present at a rate of 10%, equivalent to 50 g/tonne for product identification purposes only. The basal milk replacer was supplemented with ferrous (II) sulfate at normal commercial rates (supplying 85 g Fe/tonne feed). T2 was also supplemented with normal commercial practice of Fe (ferrous (II) sulfate at 85 g Fe/tonne feed) with Fe at 85 g/tonne feed from the ferric (III) citrate (CI-PLEX™ CHELATE). […] The basal milk replacer batch was produced, and then split into 2 aliquots prior to adding the different inorganic or organic Fe sources to T1, and T2 diets. Calves were housed in rearing units, each unit with pens on either side of a central aisle.
The following parameters were measured: mean pen body weight (BW), feed intake (FI), body weight gain (BWG), feed conversion ratio (FCR, feed:gain) at study start and on days 7, 14, 21, 28, 35, 42, 49 and 56 days on trial. In addition, the following were also recorded: body temperature, faeces quality, coughing score, and nasal discharge.
The scoring of faecal consistency and of rectal temperature, coughing, nasal discharge as well as eye and ear scores were ranked daily.

[8] = Zootechnical efficacy of ferric citrate in milk replacer for rearing calves: body weight, feed intake, gain, FCR (Example 11); assay type: in vivo, rearing calves (German Holstein); conditions: milk replacer: T1 Fe(II) sulfate 85 g Fe/tonne, T2 plus ferric citrate 500 g/tonne feed
Procedure: The composition of the basal calf milk replacer is shown in Table 36, and the feeding schedule in Table 37.
The milk replacer was dissolved in warm water at around 50° C. The concentration was 125 grams per liter. The drinking temperature was kept at 38 to 40° C.
Additionally, a commercial calf starter feed (mash) without phytogenics, probiotics, organic acids or enzymes was provided. Straw was also provided in pre-weighed amounts throughout the 56 day feeding period.

[9] = Score 0: normal, 1: slightly disorder, 2: middle disorder, 3: severe disorder

## O=C([O-])C(O)C(O)C(=O)[O-].O=C([O-])C(O)C(O)C(=O)[O-].O=C([O-])C(O)C(O)C(=O)[O-].[Fe+3].[Fe+3] (centres unmarked) [Fe-Tart, ferric tartrate]
[1]
  Faecal lactobacilli counts, day 0 post weaning: 8.84 10log cfu/g
  Faecal lactobacilli counts, day 4 post weaning: 8.94 10log cfu/g
  Faecal lactobacilli counts, day 7 post weaning: 9.48 10log cfu/g
  Faecal lactobacilli counts, day 14 post weaning: 8.79 10log cfu/g
[2]
  Faecal E. coli counts, day 0 post weaning: 8.67 10log cfu/g
  Faecal E. coli counts, day 4 post weaning: 6.42 10log cfu/g
  Faecal E. coli counts, day 7 post weaning: 6.51 10log cfu/g
  Faecal E. coli counts, day 14 post weaning: 6.43 10log cfu/g
[3]; 100 and 300 μM, 72 hours
  biofilm formation (coverage rate on glass slide): inhibits the formation of biofilm
[4]
  C. jejuni biofilm formation on plastic coated UV beads (FIG. 9): inhibited C. jejuni biofilm formation

## CC(O)C(=O)O.CC(O)C(=O)O.CC(O)C(=O)O.[Fe] (centres unmarked) [Fe-Lac, ferric lactate]
[1]
  Faecal lactobacilli counts, day 0 post weaning: 8.68 10log cfu/g
  Faecal lactobacilli counts, day 4 post weaning: 8.76 10log cfu/g
  Faecal lactobacilli counts, day 7 post weaning: 8.97 10log cfu/g
  Faecal lactobacilli counts, day 14 post weaning: 8.77 10log cfu/g
  Lactobacilli to E. coli ratio (L:C), day 0 post weaning: 1.03
  Lactobacilli to E. coli ratio (L:C), day 4 post weaning: 1.08
  Lactobacilli to E. coli ratio (L:C), day 7 post weaning: 1.33
  Lactobacilli to E. coli ratio (L:C), day 14 post weaning: 1.45
[5]
  levels of Campylobacter in caeca at day 35, comparison between treatments (FIG. 11): lowest levels
[5]; oral challenge at day 14
  levels of Campylobacter in caeca at day 35 compared with positive control (FIG. 11): lower levels of Campylobacter in their caeca
[6]
  Averaged body weight gain, days 0 to 4 post weaning: 153 g/day/pig
  Averaged body weight gain, days 0 to 7 post weaning: 172 g/day/pig
  Averaged body weight gain, days 0 to 14 post weaning: 380 g/day/pig
  Averaged body weight gain, days 4 to 7 post weaning: 197 g/day/pig
  Averaged body weight gain, days 7 to 14 post weaning: 587 g/day/pig
  Averaged daily feed intake, days 0 to 4 post weaning: 154 g/day/pig
  Averaged daily feed intake, days 0 to 7 post weaning: 223 g/day/pig
  Averaged daily feed intake, days 0 to 14 post weaning: 378 g/day/pig
  Averaged daily feed intake, days 4 to 7 post weaning: 315 g/day/pig
  Averaged daily feed intake, days 7 to 14 post weaning: 532 g/day/pig
  Body weights, day 0 post weaning: 9.74 kg/pig
  Body weights, day 4 post weaning: 10.35 kg/pig
  Body weights, day 7 post weaning: 10.94 kg/pig
  Body weights, day 14 post weaning: 15.05 kg/pig
  Feed conversion ratio, days 0 to 4 post weaning: 0.54 g/g
  Feed conversion ratio, days 0 to 7 post weaning: 2.67 g/g
  Feed conversion ratio, days 0 to 14 post weaning: 1.00 g/g
  Feed conversion ratio, days 7 to 14 post weaning: 0.91 g/g
[2]
  Faecal E. coli counts, day 0 post weaning: 8.40 10log cfu/g
  Faecal E. coli counts, day 4 post weaning: 7.80 10log cfu/g
  Faecal E. coli counts, day 7 post weaning: 6.37 10log cfu/g
  Faecal E. coli counts, day 14 post weaning: 5.98 10log cfu/g
[3]; 10, 50, and 100 μM
  biofilm formation (coverage rate on glass slide), dispersion effect (FIG. 5B): inhibits the formation of biofilm
[3]; 50, 100, and 300 μM, 72 hours
  biofilm formation (coverage rate on glass slide), titration effect (FIG. 5A): inhibits the formation of biofilm

## NCC(=O)[O-].NCC(=O)[O-].NCC(=O)[O-].[Fe+3] [Fe-Gly, Ferric glycinate]
[3]; 300 μM, 72 hours
  biofilm formation (coverage rate on glass slide): able to inhibit biofilm formation
[3]; 100 and 300 μM, 72 hours
  biofilm formation (coverage rate on glass slide): inhibits the formation of biofilm

## O=S(=O)([O-])[O-].[Fe+2] [Fe (II)sulfate]
[7]; [9]
  Mean daily body temperature score 1-56 d of rearing: 0.09 ± 0.11^a
  Mean daily coughing score 1-56 d of rearing: 0.51 ± 0.13
  Mean daily ear score 1-56 d of rearing: 0.04 ± 0.07
  Mean daily eye score 1-56 d of rearing: 0.04 ± 0.07
  Mean daily faecal score 1-56 d of rearing: 0.68 ± 0.14
  Mean daily nasal discharge score 1-56 d of rearing: 0.44 ± 0.12
[7]; bovine, in vivo
  % excluded, 1-56 d of rearing: 0%
  No calves excluded, 1-56 d of rearing: 1
[7]; of 40 calves per treatment
  No calves treated with antibiotics, 1-56 d of rearing: 3
[8]
  ADFI 1-21 d of rearing: 804 ± 38 g
  ADFI 1-56 d of rearing: 1.49 ± 0.02 kg
  ADFI 22-56 d of rearing: 1.90 ± 0.02 kg
  ADG 1-21 d of rearing: 268 ± 30^a g
  ADG 1-56 d of rearing: 723 ± 36^a g
  ADG 22-56 d of rearing: 792 ± 48^a g
  FCR 1-21 d of rearing: 1.339 ± 0.142^a feed:gain
  FCR 1-56 d of rearing: 2.065 ± 0.100^a feed:gain
  FCR 22-56 d of rearing: 2.408 ± 0.148^a feed:gain
  Mean BW at d 56 of rearing: 91.9 ± 2.0^a kg

Source: US10653658B2, “Biofilm inhibiting compositions enhancing weight gain in livestock” (Akeso Biomedical, Inc., priority 2015, dated 2020)
